The record followed here is US8008312B2, “CXCR4 antagonists for the treatment of HIV infection” (Emory University, priority 2005, dated 2011).

Sequence of CXCR4 (P61073 whole entry): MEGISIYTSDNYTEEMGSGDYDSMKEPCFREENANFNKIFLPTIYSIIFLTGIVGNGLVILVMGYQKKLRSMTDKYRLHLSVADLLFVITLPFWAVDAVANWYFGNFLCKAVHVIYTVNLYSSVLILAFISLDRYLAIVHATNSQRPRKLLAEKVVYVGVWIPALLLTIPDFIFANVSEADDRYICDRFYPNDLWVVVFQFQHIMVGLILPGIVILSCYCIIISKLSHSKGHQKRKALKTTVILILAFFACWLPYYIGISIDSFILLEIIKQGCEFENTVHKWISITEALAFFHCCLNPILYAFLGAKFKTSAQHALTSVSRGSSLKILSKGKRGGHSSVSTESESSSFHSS

One series concerns NL4-3. In words: Phenoscreen viral entry inhibition assay, NL4-3. As to conditions: Human immunodeficiency virus 1, NL43, read-out: Viral Entry Inhibition NL4-3. The class given is cell-based, HIV. The procedure:
(§1) A selected set of compounds were tested for their ability to inhibit the cellular entry of T-tropic HIV. The assay for this inhibition has been carried out on a contractural basis at Monogram Biosciences, Inc. using their well established Phenoscreen™ assay. Briefly, HIV strains of interest are tagged with a luciferase indicator gene to create an appropriate test vector. The test vector is amplified through transfection and the resulting virus is incubated in the presence of target host cells where intracellular florescence activity then becomes a measure of infection. Amplified virus is exposed to target host cells in the presence of a range of test drug concentrations to determine IC50 measurements of entry inhibition. A modification of this test has been further reapplied as a novel drug assay that has been used in partnership with a number of pharmaceutical companies to test the effectiveness of novel entry inhibitors that target specific chemokines. It can used to detect activity against T-tropic, M-tropic, and dual-tropic viruses and Monogram Biosciences has a large bank of over 10,000 different virus strains to ultimately asses the range of applicability of our CXCR4 antagonists. Certain compounds have been tested to establish efficacy in a number of viral strains.
Turning to `c1ccc(NCc2ccc(CNc3ccccc3)cc2)cc1` [WZ-81810], the IC50 is > 15000 nM.

Tested on in a further series: not listed separately
Kind of series: Half-life in mice. As to conditions: mouse, in vivo, read-out: t1/2 (min) in mice.
Take `c1cnc(NCc2ccc(CNc3ncccn3)cc2)nc1` [drawing 205]: the half-life was 45 min.
Still for that read-out and setting: under `c1ccc(NCc2ccc(CNc3ccccc3)cc2)cc1` [drawing 208] stands 11 min; under `c1ccc(NCc2cccc(CNc3ccccc3)c2)cc1` [drawing 209], < 5 min.
As for `CC(Nc1ccccc1)c1ccc(C(C)Nc2ccccc2)cc1` (stereo not drawn) [drawing 211], the half-life turned out to be 13.7 min.
On the same count and under the same terms, for `c1ccc(NCc2ccc(CNc3ncccn3)cc2)cc1` [drawing 214] the value was 14 min.
The same measure, in the same setting: under `COc1cccc(NCc2ccc(CNc3cccc(OC)c3)cc2)c1` [drawing 216] stands 14.3 min.

Another series deals with Vrs-2. Kind of series: Phenoscreen viral entry inhibition assay, Vrs-2. The class given is cell-based, HIV. As to conditions: Human immunodeficiency virus 1, read-out: Viral Entry Inhibition Vrs-2. The protocol:
as §1
Regarding `c1ccc(NCc2ccc(CNc3ccccc3)cc2)cc1` [WZ-81810], the IC50 was ~10000 nM.

The next series concerns Vrs-1. Kind of series: Phenoscreen viral entry inhibition assay, Vrs-1. The class given is cell-based, HIV. As to conditions: Human immunodeficiency virus 1, read-out: Viral Entry Inhibition Vrs-1. The procedure:
as §1
As for `c1ccc(NCc2ccc(CNc3ccccc3)cc2)cc1` [WZ-81810], the IC50 is > 15000 nM.

A further series deals with HXB2. Kind of series: Phenoscreen viral entry inhibition assay, HXB2. The settings on record: Human immunodeficiency virus 1, HXB2, read-out: Viral Entry Inhibition HXB2. Type of series: cell-based, HIV. The procedure:
as §1
For the molecule `c1ccc(NCc2ccc(CNc3ccccc3)cc2)cc1` [WZ-81810], the IC50 is > 15000 nM.

A further series has as its target CXCR4 (Homo sapiens, UniProt P61073). Kind of series: Competition screening using the native CXCR4 ligand SDF-1. Type of series: binding. The settings on record: competition with SDF-1.
As for `c1ccc(NCc2ccc(CNc3ccccn3)cc2)nc1` [drawing 204], the IC50 was < 10 nM.
Same read-out and setting: for `c1cnc(NCc2ccc(CNc3ncccn3)cc2)nc1` [drawing 205] the value was < 10 nM.
The same measure, in the same setting: for `OCc1ccc(CNc2ncccn2)cc1` [drawing 206] the value was < 10 nM; for `c1ccc(NCc2ccc(CNc3ccccc3)cc2)cc1` [drawing 208], < 10 nM.
The same measure, in the same setting: under `c1ccc(NCc2cccc(CNc3ccccc3)c2)cc1` [drawing 209] stands < 10 nM; under `c1ccc(CNCc2ccc(CNCc3ccccc3)cc2)cc1` [drawing 210], < 100 nM.
For `CC(Nc1ccccc1)c1ccc(C(C)Nc2ccccc2)cc1` (stereo not drawn) [drawing 211], the IC50 was < 100 nM.
As for `Cc1cc(CNc2ccccc2)c(C)cc1CNc1ccccc1` [drawing 212], the IC50 is > 100 nM.
Still for that read-out and setting: for `Fc1ccccc1NCc1ccc(CNc2ccccc2F)cc1` [drawing 213] the value was < 10 nM; for `COc1ccnc(NCc2ccc(CNc3nccc(OC)n3)cc2)n1` [drawing 215], 10 nM.
Same read-out and setting: under `COc1cccc(NCc2ccc(CNc3cccc(OC)c3)cc2)c1` [drawing 216] stands 1 nM.

A further series concerns Vrs-3. In words: Phenoscreen viral entry inhibition assay, Vrs-3. Type of series: cell-based, HIV. The settings on record: Human immunodeficiency virus 1, read-out: Viral Entry Inhibition Vrs-3. The procedure: as §1
For the molecule `c1ccc(NCc2ccc(CNc3ccccc3)cc2)cc1` [WZ-81810], the IC50 is > 15000 nM.

A further series has as its system Dual. In words: Phenoscreen viral entry inhibition assay, Dual. Type of series: cell-based, HIV. The settings on record: Human immunodeficiency virus 1, read-out: Viral Entry Inhibition Dual. The procedure:
as §1
On to `c1ccc(NCc2ccc(CNc3ccccc3)cc2)cc1` [WZ-81810], for which the IC50 was > 15000 nM.

In a further series the test system is SHIV. Kind of series: Phenoscreen viral entry inhibition assay, SHIV.
Conditions: not given
Type of series: cell-based. The protocol: as §1
For the molecule `c1ccc(NCc2ccc(CNc3ccccc3)cc2)cc1` [WZ-81810], the IC50 is ~12000 nM.
